“Also recorded” adds a separate entry of the source. Values belong to the compound of their own block, whether it stands above or below them.
Assays:
[1] = test system: Gal4-RE-controlled complex and synthetic minimal reporter constructs; assay: Gal4-DBD fusion repression, transient transfection luciferase reporter; assay type: cell-based; conditions: for transcriptional repression: Gal4-DBD context, all reporter systems described; for repression potential as Gal4-DBD fusion (in words): transient transfections; for effect of HDAC inhibitor on Gal-GRIM1 repression: trichostatin A 300 nM, sodium butyrate 5 mM
From the text: To determine the transcriptional properties of hsGRIM1 proteins in eukaryotic cells, pCMX-hsGRIM1 expression plasmids were cotransfected with luciferase (LUC) reporter plasmids. Expression of the particular hsGRIM1 protein in a pCMX expression plasmid is under the control of the cytomegalovirus promoter. Luciferase expression in the LUC reporter plasmids used is controlled either by the thymidine kinase (TK) promoter, an E1b minimal promoter (TATA box), or by the respectively indicated complex promoters.
Transfection takes place by the calcium phosphate method or by the DOTAP liposomes method (Roche Diagnostics, product information). Unless otherwise indicated, 10^5 cells/well were seeded in 1 ml of culture medium in 12-well dishes. In the CaPO4 method, the plasmid DNA to be transfected is coprecipitated with calcium phosphate, and the precipitate is distributed to the cells capable of division. The calcium phosphate precipitate is prepared by preparing the mixture indicated below for duplicates in 12-well dishes:
While agitating (vortexing), 80 μl of 2xBES buffer are slowly and uniformly added dropwise to this mixture. The precipitate is incubated at RT for 10 min and distributed uniformly to the cells (80 μl per well) and, after 8 hours, removed by washing with PBS. The cells are incubated in fresh culture medium for a further 18 to 24 h. • BES buffer (2×): 50 mM N,N-bis[2hydroxyethyl]-2-aminoethanesulfonic acid; 280 mM NaCl; 1.5 mM Na2HPO4.2H2O; pH 6.95
Transiently transfected cells are washed once with PBS and lyzed by adding 50 μl of reporter lysis buffer (Promega) and further disrupted by freezing at −80° C. Cell lysates are transferred into Eppendorf reaction vessels, and cell detritus is pelleted at 14 000 rpm for 2′. 10 μl portions of the lysates are pipetted into 96-well microtiter plates to determine the luciferase activity. The luciferase assay took place in an EG&G Berthold Microluminomat. 40 μl of luciferase assay buffer are injected into the 10 μl of cell lysate, and the resulting chemiluminescence is determined in a time integral of 10″. The measured values for the luciferase activity are related to the amount of protein present in the cell lysate. For this purpose, 3 μl portions of the lysates are mixed in 96-well microtiter plates with 100 μl of Bradford assay reagent (BioRad) diluted 1:5 with H2O, and the absorption of the solution is determined at 595 nm. Relative luciferase activities are found from the ratio of the luciferase activity to the protein absorption. • Luciferase assay buffer: 200 mM tricine; 1.07 mM (MgCO3).4Mg(OH)2; 0.1 M MgSO4, 10 mM EDTA (pH 8.0); 33 mM DTT; […]; […] acetyl-coenzyme A; […] glowworm luciferin.
All the described data were obtained with the hsGRIM1 clone. […] Gal-GRIM1 represses expression of reporter genes both of Gal4-RE-controlled complex and synthetic minimal reporter constructs. The repression potential of GRIM1 is distinctly greater for example compared with the corepressor Gal-SuN-CoR. In these experiments, the appropriate corepressors are transiently expressed as heterologous Gal4-DBD fusion proteins in cells. The repression capacity on various synthetic promoter-reporter constructs compared with equal quantities of transfected wild-type Gal4-DBD is determined by luciferase reporter gene expression (FIG. 8).
Gal-GRIM1 is equally strong as a repressor as a large number of described corepressors such as, for example, Gal-HDAC1-10, Gal-CBF1, Gal-Alien and represses only insignificantly weaker than Gal-N-CoR-RD or Gal-SMRT-RD. The repression potential of Gal-GRIM1 was investigated in conjunction with the complex Gal43x-tk-LUC and Gal-MMTV-LUC promoter/reporter constructs and in conjunction with the minimal promoter/reporter constructs Gal5x-E1b-TATA-box and Gal3x-βglobin-TATA-LUC. […]

[2] = test system: differentiating C2C12 skeletal muscle cells; assay: GRIM1 relocalization in differentiating C2C12 cells under signal pathway inhibitors; assay type: cell-based, mouse; conditions: day 0 to day 6 in differentiation medium; Gö6850 1 μM, LY294002 10 μM, Ro31-8220 0.5 μM, PD98059 10 μM, fasudil 10 μM
Experimental: The cells were cultured in the media recommended by the ATCC on 15 cm cell culture dishes under sterile conditions. Cells are subcultured in a ratio of 1:5 to 1:20 every two to three days and kept at a maximum of 60% confluence. Old medium is removed, and the cells are washed with PBS buffer and treated with trypsin/EDTA solution (0.25% trypsin, 0.04% EDTA in PBS buffer) until they are detached from the culture dish. The cells are isolated in fresh medium and subcultured on new subculture dishes. • PBS buffer: 137 mM NaCl; 2.7 mM KCl; 8 mM Na2HPO4; 1.8 mM KH2PO4 • Media used: DMEM (Gibco BRL), 100 IU penicillin G/ml, 100 μg/ml streptomycin, 2 mM glutamine, 10% fetal calf serum. As differentiation medium for C2C12 and L6 cells, 10% FCS was replaced by 2% horse serum.
Cells are seeded in the desired cell density on autoclaved slides and fixed on the support with 5% paraformaldehyde for 10′. Cell membranes are made permeable for antibodies by incubation in 0.2% TritonX100 for 10′. Before the incubation with the primary antibodies, the cells are blocked in 0.2% gelatin (in PBS) at RT for 1 h. Anti-hsGRIM1 antibodies are diluted 1:500 in 0.2% strength gelatin solution and incubated at RT for 1 h. After washing three times with PBS for 5′ each time, the respective fluorochrome-coupled secondary antibody is added 1:2000 in 0.2% gelatin solution and incubated in the dark at RT for 30′. After the washing steps, the nucleus is counterstained with DAPI (1 μg/ml PBS, Roche Diagnostics) and the cells are finally washed twice in 0.1% TritonX100 in order to minimize autofluorescences. The slides are preserved in Fluoromount M (Southern Biotechnology Associates) and analyzed using a fluorescence microscope.
Treatment of differentiating C2C12 skeletal muscle cells with various inhibitors of central signal transduction pathways have no effect on relocalization or the number of nuclear speckles of GRIM1 within the investigated differentiation from day 0 to day 6 after addition of the differentiation medium. Tested inhibitors: pan-HDAC inhibitors TSA and sodium butyrate, protein kinase inhibitors Gö6850 (specific PKC inhibitor, 1 μM), LY294002 (specific P13kinase inhibitor, 10 μM), Ro31-8220 (PKC broad-spectrum inhibitor, 0.5 μM), PD98059 (MEK1 inhibitor, 10 μM), fasudil (Rock kinase inhibitor, 10 μM), SB203580 (p38α/β inhibitor). Overacetylation and blockade of central signal cascades had drastic morphologically visible consequences for some of the cells, but there was no effect on relocalization or the number of detectable GRIM1 speckles.

androgen receptor (hsAR) = assay: GRIM1-AR protein-protein interaction (pulldown, co-IP, yTHS); assay type: binding, human
Experimental: Further functional characterization of the interaction domains within GRIM1 was carried out by pulldown analyses with the expressible fragments of GRIM1.

[3] = test system: core histones H4, H2B, H2A and H3; assay: GST pulldown with core histones; assay type: binding
Experimental: A protein is expressed as GST fusion protein in E. coli, immobilized on a GST-binding carrier material, and incubated with the potential interactant which is usually radiolabeled. In the subsequent washing steps, proteins which interact only weakly or not at all are washed off the carrier material or the carrier material-bound GST fusion protein. The amount of associated interactant can be determined by fractionation of the proteins by SDS-PAGE and subsequent autoradiography. To check the specificity of interaction between potential interactant and GST fusion protein, the interaction with GST alone is examined.
Aliquots of GST-GRIM1 fragments or GST-containing E. coli crude lysate are mixed in each case with 30 μl of glutathione(GSH)-Sepharose and incubated on a bohemian wheel at 4° C. for 1 h. The GSH-Sepharose is pelleted by centrifugation (1′ at 2000 rpm) and washed twice in pulldown buffer. The pellet is then resuspended in 500 μl of pulldown buffer and incubated with the in vitro translated, […] potential interactant at 4° C. on the bohemian wheel for 1 h. […]

[4] = test system: nuclear export of GFP-GRIM1 (exportin1/Crm1); assay: Nuclear export of GFP-GRIM1 under leptomycin B; assay type: cell-based; conditions: 20 nM for 6 h before cell harvesting
[5] = test system: acetylation of core histones by p300; assay: INHAT assay (in vitro acetylation of histones by p300); assay type: biochemical; conditions: core histones H3, H2A, H2B and H4
Experimental: INHAT assays were carried out as described by Eckner et al. and by Seo et al. (Eckner et al., 1996, Genes and Development 10 (19), pp 2478-2490, Seo et al., 2001, Cell 104 (1), pp 119-130). Histones or histone mixtures are preincubated with the appropriate peptides in a total of 50 μl of HAT buffer, then mixed with bacterially expressed p300 HAT domains and 0.5 μCi of ^14C-acetyl-coenzyme A, and incubated at 30° C. and 1000 rpm for 2 h. Reactions are stopped by adding SDS Laemmli buffer. Proteins are fractionated in denaturing SDS-PAGE, and the gels are incubated in Amplify (NEN) for 1 h. Acetylations are detected in autoradiographies.
It was possible to show in GST pulldown analyses that the N- and C-terminal fragments of hsGRIM1 can associate directly with histones in vitro.

brought about a change in the transcriptional activity of Gal-GRIM1 ([1]; PKC inhibition or activation, various cell lines): Neither
Compound: CN(C)CCCn1cc(C2=C(c3c[nH]c4ccccc34)C(=O)NC2=O)c2ccccc21 [Gö6850]
effect on relocalization or number of nuclear speckles of GRIM1 [2]: no effect

Compound: COc1cccc(-c2cc(=O)c3ccccc3o2)c1N [PD98059]
effect on relocalization or number of nuclear speckles of GRIM1 [2]: no effect

transcriptional repression [1]: 2 × | repression potential as Gal4-DBD fusion (in words) [1]: smallest repressive effect
Compound: Gal-I: hsGRIM1 aa 609-749 as Gal4-DBD fusion (Table 8; Table 2 differs)

effect on general transcription ([1]; cotransfection of full-length p300 and Gal-GRIM1): enhances general transcription
Compound: CC(/C=C/C(=O)NO)=C\[C@@H](C)C(=O)c1ccc(N(C)C)cc1 [trichostatin A]
effect of HDAC inhibitor on Gal-GRIM1 repression [1]: not impaired; also recorded: relative repression by Gal-GRIM1 remains unchanged; also recorded: not influenced | effect on relocalization or number of nuclear speckles of GRIM1 [2]: no effect

interaction with hsAR (androgen receptor (hsAR); tfIP, utfIP, yTHS, PD and tT): strong direct interaction
Compound: mmGRIM1: mouse GRIM1, 750 amino acids, Seq. ID No. 4

Compound: O=S(=O)(c1cccc2cnccc12)N1CCCNCC1 [fasudil]
effect on relocalization or number of nuclear speckles of GRIM1 [2]: no effect

transcriptional repression [1]: 2 × | repression potential as Gal4-DBD fusion (in words) [1]: smallest repressive effect
Compound: Gal-E: hsGRIM1 aa 3-147 as Gal4-DBD fusion

Compound: GST-E: GST-fused hsGRIM1 aa 3-147
interaction with core histones [3]: marked interaction

Compound: CCC(=C/[C@H](C)C/C=C/C(C)=C/[C@@H](C)C(=O)[C@@H](C)[C@H](O)[C@@H](C)C/C(C)=C/C(=O)O)/C=C/[C@@H]1OC(=O)C=C[C@@H]1C [leptomycin B]
effect on nuclear export of GFP-GRIM1 or GFP-GRIM1 aa234-336 [4]: not influenced

Compound: O=c1cc(N2CCOCC2)oc2c(-c3ccccc3)cccc12 [LY294002]
effect on relocalization or number of nuclear speckles of GRIM1 [2]: no effect

Compound: C[S+]([O-])c1ccc(-c2nc(-c3ccncc3)c(-c3ccc(F)cc3)[nH]2)cc1 (centres unmarked) [SB203580]
effect on relocalization or number of nuclear speckles of GRIM1 [2]: no effect

influence of AR antagonist on GRIM1-AR interaction (androgen receptor (hsAR)): cannot be influenced
Compound: CC(C)(O)C(=O)Nc1ccc([N+](=O)[O-])c(C(F)(F)F)c1 [hydroxyflutamide]

Compound: GRIM1 aa 3-147: recombinantly expressed N-terminal hsGRIM1 fragment, tag not stated
inhibition of histone acetylation by p300 (INHAT activity) [5]: efficiently blocks acetylation

Compound: Cn1cc(C2=C(c3cn(CCCSC(=N)N)c4ccccc34)C(=O)NC2=O)c2ccccc21 [Ro31-8220]
effect on relocalization or number of nuclear speckles of GRIM1 [2]: no effect

interacted with the AR in pulldown (androgen receptor (hsAR); GST fragments, in the sequence M≧H>>I): interacted with the AR
Compound: GST-I: GST-fused hsGRIM1 aa 609-749
interaction with core histones [3]: marked interaction

Compound: CCCC(=O)[O-].[Na+] [sodium butyrate]
effect of HDAC inhibitor on Gal-GRIM1 repression [1]: not impaired | effect on relocalization or number of nuclear speckles of GRIM1 [2]: no effect

From US7981623B2, “Repressor of skeletal muscle differentiation, nucleic acids coding therefor and the use thereof in diagnosis and therapy” (Universitaetsklinikum Freiburg, priority 2002, dated 2011)
